Values of other authors in EP1060743A1, “Oral cisapride dosage forms with an extended duration” (DEVELOPMENT CENTER FOR BIOTECHNOLOGY, priority 1999, dated 2000).
Where two headings read alike, the source gives them in different places.

solubility of cisapride (pH condition near neutral (pH of intestinal fluid)): almost insoluble
solubility of cisapride (under acidic conditions): better solubility
Compound: COc1cc(N)c(Cl)cc1C(=O)NC1CCN(CCCOc2ccc(F)cc2)CC1OC (racemic) [cisapride, (±)-cis-4-amino-5-chloro-N-1-[3-(4-fluorophenoxy)propyl]-3-methoxy-4-piperidine-2-methoxybenzamide monohydrate]
